Laboratory results taken from the supplement of paper PMC5579334.

Columns and labels:
HS-PSS [1] = test: relative IC50 (inflection point of fitted dose-response curve, CellTox-Green cytotoxicity, 72 h; top asymptote may be below 50%); higher = less potent
Summary of the method: (§1)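 MPNST cell lines and primary human Schwann cells were grown for 72 h at 37 °C in 384-well plates containing five 10-fold compound dilutions. CellTox-Green, added before seeding at a final 1:1000 dilution, gave fluorescence from DNA released by disrupted cells, and signals were scaled to vehicle and positive-control wells. Curves were fitted with a four-parameter logistic model. Drug sensitivity score and relative IC50 come from these fits, with IC50 censored at the top concentration.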

HSC1 [2] = test: as above
Summary of the method: as §1

HSC2 [3] = test: as above
Summary of the method: as §1

S1507-2 [4] = test: as above
Summary of the method: as §1

ST8814 [5] = test: as above
Summary of the method: as §1

STS26T [6] = test: as above
Summary of the method: as §1

HS-PSS [7] = test: relative IC50 (inflection point of fitted dose-response curve, CellTiter-Glo viability, 72 h; top asymptote may be below 50% inhibition); higher = less potent
Summary of the method: (§2)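 For this screen, 384-well plates were preprinted with each compound at five concentrations in 10-fold steps and seeded with MPNST cell lines or primary human Schwann cells at 750–1000 cells per well. Incubation lasted 72 h at 37 °C, 5% CO2, and CellTiter-Glo ATP luminescence, scaled between vehicle and positive-control wells and averaged over duplicates where available, served as viability. Logistic fits with four parameters were applied. Relative IC50 (censored at the top concentration) and drug sensitivity score derive from these fits, and percent inhibition is at the top concentration.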

HSC1 [8] = test: as above
Summary of the method: as §2

HSC2 [9] = test: as above
Summary of the method: as §2

S462 = test: as above
Summary of the method: as §2

ST8814 [10] = test: as above
Summary of the method: as §2

STS26T [11] = test: as above
Summary of the method: as §2

YST-1 = test: as above
Summary of the method: as §2

HS-Sch-2 = test: as above
Summary of the method: as §2

S1507-2 [12] = test: as above
Summary of the method: as §2

Structure (SMILES) | relative IC50 (HS-PSS [1]) | relative IC50 (HSC1 [2]) | relative IC50 (HSC2 [3]) | relative IC50 (S1507-2 [4]) | relative IC50 (ST8814 [5]) | relative IC50 (STS26T [6]) | relative IC50 (HS-PSS [7]) | relative IC50 (HSC1 [8]) | relative IC50 (HSC2 [9]) | relative IC50 (S462) | relative IC50 (ST8814 [10]) | relative IC50 (STS26T [11]) | relative IC50 (YST-1) | relative IC50 (HS-Sch-2) | relative IC50 (S1507-2 [12])
CCn1c(C(=O)N(C2CC2)C2CC2)cc2c3c(ncn3C)c(Nc3cc(C)n(C)n3)nc21 | > 10 µM | > 10 µM | > 10 µM | > 10 µM | > 10 µM | > 10 µM | > 10 µM | > 10 µM | > 10 µM | > 10 µM | > 10 µM | > 10 µM | 1.59 µM | – | –
N#Cc1ccc(COC[C@H]2O[C@@H](n3c(NCc4ccc(Cl)c(Cl)c4)nc4c(N)ncnc43)[C@H](O)[C@@H]2O)cc1 | > 10 µM | > 10 µM | > 10 µM | > 10 µM | > 10 µM | – | – | 0.784 µM | 0.261 µM | – | > 10 µM | 1.1 µM | 1.24 µM | > 10 µM | > 10 µM
CCCCC/C=C/C=C1/C(=O)C=C[C@@H]1C/C=C\CCCC(=O)O [15D-PGJ2] | > 3 µM | > 0.8 µM | > 0.8 µM | > 0.8 µM | > 0.8 µM | > 0.8 µM | > 3 µM | > 0.8 µM | > 0.8 µM | > 0.8 µM | > 0.8 µM | > 0.8 µM | > 3 µM | – | –
CN[C@@H](C)C(=O)N[C@H]1CN(C(=O)CC(C)C)CC[C@H]2CC[C@@H](C(=O)NC(c3ccccc3)c3ccccc3)N2C1=O [AT-406] | > 10 µM | > 10 µM | > 10 µM | 0.0583 µM | > 10 µM | 0.0199 µM | – | > 10 µM | > 10 µM | > 10 µM | > 10 µM | 0.0972 µM | > 10 µM | – | –
O=C1CN2Cc3c(ccc(Cl)c3Cl)N=C2N1 [Anagrelide] | > 10 µM | > 10 µM | – | > 10 µM | > 10 µM | > 10 µM | > 10 µM | – | 0.134 µM | > 10 µM | – | > 10 µM | > 10 µM | 0.144 µM | > 10 µM
CC(O)(CS(=O)(=O)c1ccc(F)cc1)C(=O)Nc1ccc(C#N)c(C(F)(F)F)c1 (stereo not given) [Bicalutamide] | > 10 µM | > 10 µM | > 10 µM | > 10 µM | > 10 µM | > 10 µM | – | – | > 10 µM | – | > 10 µM | – | > 10 µM | – | > 10 µM
CCNC(=O)CCC/C=C\C[C@@H]1[C@@H](/C=C/[C@@H](O)CCc2ccccc2)[C@H](O)C[C@@H]1O [Bimatoprost] | > 5.5 µM | > 5.5 µM | > 5.5 µM | > 5.5 µM | > 5.5 µM | > 5.5 µM | > 5.5 µM | > 5.5 µM | > 5.5 µM | – | > 5.5 µM | > 5.5 µM | > 5.5 µM | > 5.5 µM | > 5.5 µM
Cc1ccc(-c2cc(C(F)(F)F)nn2-c2ccc(S(N)(=O)=O)cc2)cc1 [Celecoxib] | > 10 µM | > 10 µM | > 10 µM | > 10 µM | > 10 µM | > 10 µM | > 10 µM | – | > 10 µM | > 10 µM | > 10 µM | > 10 µM | > 10 µM | > 10 µM | > 10 µM
O=C(O)CCCc1ccc(N(CCCl)CCCl)cc1 [Chlorambucil] | > 10 µM | > 10 µM | > 10 µM | > 10 µM | > 10 µM | > 10 µM | > 10 µM | – | – | > 10 µM | > 10 µM | > 10 µM | – | > 10 µM | > 10 µM
CC(C)(C)c1nc(-c2cccc(NS(=O)(=O)c3c(F)cccc3F)c2F)c(-c2ccnc(N)n2)s1 [Dabrafenib] | > 2.5 µM | > 2.5 µM | > 2.5 µM | > 2.5 µM | > 2.5 µM | > 2.5 µM | 1 µM | 0.22 µM | 0.0633 µM | 0.668 µM | 0.968 µM | 0.0728 µM | – | – | –
C#Cc1cccc(Nc2ncnc3cc(OCCOC)c(OCCOC)cc23)c1 [Erlotinib] | > 10 µM | > 10 µM | > 10 µM | > 10 µM | > 10 µM | > 10 µM | 2.1 µM | 2.36 µM | 2.31 µM | 2.31 µM | 3.13 µM | 2.06 µM | 1.47 µM | 1.55 µM | –
Cc1nc(C(=O)NCC(=O)O)c(O)c2ccc(Oc3ccccc3)cc12 [FG-4592] | > 10 µM | > 10 µM | > 10 µM | > 10 µM | > 10 µM | > 10 µM | 1.21 µM | – | – | > 10 µM | > 10 µM | > 10 µM | > 10 µM | 2.47 µM | > 10 µM
CC(C)C(=O)Nc1ccc([N+](=O)[O-])c(C(F)(F)F)c1 [Flutamide] | > 10 µM | > 10 µM | > 10 µM | > 10 µM | > 10 µM | > 10 µM | – | – | > 10 µM | > 10 µM | > 10 µM | – | > 10 µM | > 10 µM | > 10 µM
CC(C)NC[C@@H](C(=O)N1CCN(c2ncnc3c2[C@H](C)C[C@H]3O)CC1)c1ccc(Cl)cc1 [GDC-0068] | – | – | > 10 µM | > 10 µM | > 10 µM | > 10 µM | – | – | > 10 µM | – | – | 0.544 µM | – | – | 2.06 µM
